This test deals with GST-Xa-hAAK1 (Homo sapiens (Human), UniProt Q2M2I8). As to the kind of experiment: AAK1 Kinase Assay.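 Note: each compound tested across an eleven-point concentration series, with IC50 obtained through non-linear regression fitting.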 In kind it is biochemical. The settings on record: bacterially expressed GST-Xa-hAAK1 3.5 nM; ATP 22 μM; peptide substrate 1.5 μM; 3 hours at room temperature; Caliper LabChip 3000.
GST-Xa-hAAK1, sequence (Q2M2I8 whole entry): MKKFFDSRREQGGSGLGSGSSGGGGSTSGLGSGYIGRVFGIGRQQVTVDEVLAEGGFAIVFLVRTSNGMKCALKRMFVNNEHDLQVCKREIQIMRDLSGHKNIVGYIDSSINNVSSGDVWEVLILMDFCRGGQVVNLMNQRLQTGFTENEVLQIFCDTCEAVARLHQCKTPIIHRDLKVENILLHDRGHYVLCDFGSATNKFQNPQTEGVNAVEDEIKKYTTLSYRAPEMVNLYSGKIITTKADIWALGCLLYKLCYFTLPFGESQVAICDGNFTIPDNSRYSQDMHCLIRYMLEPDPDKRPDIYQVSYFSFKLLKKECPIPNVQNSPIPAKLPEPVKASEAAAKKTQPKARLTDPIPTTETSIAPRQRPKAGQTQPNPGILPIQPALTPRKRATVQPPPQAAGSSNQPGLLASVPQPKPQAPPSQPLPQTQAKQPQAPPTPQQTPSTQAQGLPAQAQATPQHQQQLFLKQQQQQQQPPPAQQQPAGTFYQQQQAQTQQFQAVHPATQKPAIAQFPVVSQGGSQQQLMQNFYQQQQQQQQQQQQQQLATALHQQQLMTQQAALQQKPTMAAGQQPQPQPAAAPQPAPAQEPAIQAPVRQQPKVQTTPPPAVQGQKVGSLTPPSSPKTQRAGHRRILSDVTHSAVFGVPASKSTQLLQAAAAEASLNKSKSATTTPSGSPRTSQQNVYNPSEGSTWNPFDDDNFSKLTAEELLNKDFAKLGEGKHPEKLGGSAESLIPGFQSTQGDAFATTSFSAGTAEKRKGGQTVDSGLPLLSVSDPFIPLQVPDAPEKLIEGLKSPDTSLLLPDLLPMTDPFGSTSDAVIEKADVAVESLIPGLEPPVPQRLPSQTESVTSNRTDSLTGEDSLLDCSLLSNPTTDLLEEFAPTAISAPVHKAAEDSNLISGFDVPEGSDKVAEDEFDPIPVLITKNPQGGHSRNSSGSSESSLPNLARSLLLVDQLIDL

A word on the IC50: it is the concentration that gives 50% inhibition. On to `Cc1cc(-c2cc(C)c(OC[C@@](C)(N)CC(C)C)cn2)ccn1` [Example 228, (S)-1-((2′,4-dimethyl-[2,4′-bipyridin]-5-yl)oxy)-2,4-dimethylpentan-2-amine], for which the IC50 worked out at 22 nM.

Turning to `Cc1cc(-c2ccnc3ccc(Cl)cc23)ncc1OC[C@@](C)(N)CC(C)C` [Example 229, (S)-1-((6-(6-chloroquinolin-4-yl)-4-methylpyridin-3-yl)oxy)-2,4-dimethylpentan-2-amine], the IC50 turned out to be 1 nM.

Consider `Cc1cc(-c2ccnc3cc(F)ccc23)ncc1OC[C@@](C)(N)CC(C)C` [Example 232, (S)-1-((6-(7-fluoroquinolin-4-yl)-4-methylpyridin-3-yl)oxy)-2,4-dimethylpentan-2-amine], for which the IC50 was found to be 0.41 nM.

Take `CC(C)C[C@](C)(N)COc1cnc(-c2ccnc3cc(F)cc(F)c23)cc1Cl` [Example 233, (S)-1-((4-chloro-6-(5,7-difluoroquinolin-4-yl)pyridin-3-yl)oxy)-2,4-dimethylpentan-2-amine]: the half-maximal inhibitory concentration (IC50) was 0.73 nM.

The compound `CC(C)C[C@](C)(N)COc1cnc(-c2ccnc3ccc(F)cc23)cc1Cl` [Example 235, (S)-1-((4-chloro-6-(6-fluoroquinolin-4-yl)pyridin-3-yl)oxy)-2,4-dimethylpentan-2-amine] yielded an IC50 of 0.36 nM.

`CC(C)C[C@](C)(N)COc1cnc(-c2ccnc3ccccc23)cc1Cl` [Example 236, (S)-1-((4-chloro-6-(quinolin-4-yl)pyridin-3-yl)oxy)-2,4-dimethylpentan-2-amine]: it took 0.98 nM to reach half-maximal inhibition (IC50).

Turning to `COC(=O)Nc1cc(-c2cc(Cl)c(OC[C@@](C)(N)CC(C)C)cn2)ccn1` [Example 237, (S)-methyl (5-((2-amino-2,4-dimethylpentyl)oxy)-4-chloro-[2,4′-bipyridin]-2′-yl)carbamate], the IC50 stood at 1.4 nM.

On to `Cc1cc(-c2cc(Cl)c(OC[C@@](C)(N)CC(C)C)cn2)ccn1` [Example 238, (S)-1-((4-chloro-2′-methyl-[2,4′-bipyridin]-5-yl)oxy)-2,4-dimethylpentan-2-amine], for which the IC50 is 2.1 nM.

`CC(C)C[C@](C)(N)COc1cnc(-c2ccnc3ccc(Cl)cc23)cc1Cl` [Example 239, (S)-1-((4-chloro-6-(6-chloroquinolin-4-yl)pyridin-3-yl)oxy)-2,4-dimethylpentan-2-amine]: inhibition was half-maximal at 0.39 nM (IC50).

For `CC(C)C[C@](C)(N)COc1cnc(-c2ccnc3cc(F)ccc23)cc1Cl` [Example 241, (S)-1-((4-chloro-6-(7-fluoroquinolin-4-yl)pyridin-3-yl)oxy)-2,4-dimethylpentan-2-amine], the IC50 turned out to be 0.86 nM.

In turn, `CC(C)C[C@](C)(N)COc1cnc(-c2ccnc3cc(C(F)(F)F)ccc23)cc1Cl` [Example 242, (S)-1-((4-chloro-6-(7-(trifluoromethyl)quinolin-4-yl)pyridin-3-yl)oxy)-2,4-dimethylpentan-2-amine] yielded an IC50 of 1.9 nM.

For `CC(C)C[C@@](C)(N)COc1ncc(-c2ccnc3ccccc23)cc1C(F)F` [Example 246, (R)-1-((3-(difluoromethyl)-5-(quinolin-4-yl)pyridin-2-yl)oxy)-2,4-dimethylpentan-2-amine], the IC50 amounted to 26 nM.

`CC(=O)Nc1cccc(-c2ccc(OCC(C)(N)CC(C)C)c(C)c2)c1` (centres unmarked) [Example 250, N-(4′-((2-amino-2,4-dimethylpentyl)oxy)-3′-methyl-[1,1′-biphenyl]-3-yl)acetamide]: half-maximal inhibition (IC50) required 659 nM.

As for `CC(=O)Nc1cccc(-c2ccc(OC[C@](C)(N)CC(C)C)c(C)c2)c1` [Example 251], inhibition was half-maximal at 1100 nM (IC50).
